Experimental data: PMC9917816, “STS1 and STS2 Phosphatase Inhibitor Baicalein Enhances the Expansion of Hematopoietic and Progenitor Stem Cells and Alleviates 5-Fluorouracil-Induced Myelosuppression” (International Journal of Molecular Sciences, 2023)

What was measured:
[1] = target: T1, STS2-HP (STS2 histidine phosphatase domain) (Homo sapiens, UniProt P57075); assay: pNPP phosphatase inhibition assay, absorbance at […] nm; type: biochemical; settings: read-out: % inhibition at 10 μg/mL
T1 construct: gene UBASH3A
T1 sequence (P57075 385-661 limits assumed): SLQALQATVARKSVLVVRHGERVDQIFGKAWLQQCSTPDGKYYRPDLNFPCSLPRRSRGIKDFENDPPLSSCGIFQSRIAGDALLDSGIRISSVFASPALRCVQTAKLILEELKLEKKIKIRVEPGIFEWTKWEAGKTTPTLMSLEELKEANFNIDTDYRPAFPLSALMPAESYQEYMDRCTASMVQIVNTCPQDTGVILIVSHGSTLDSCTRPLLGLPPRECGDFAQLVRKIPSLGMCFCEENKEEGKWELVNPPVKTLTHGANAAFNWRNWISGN

[2] = target: T2, STS1-HP (STS1 histidine phosphatase domain) (Homo sapiens, UniProt Q8TF42); assay: as above; type: biochemical; settings: pNPP substrate, pH 7.2, 25 °C, 10 min; name misprinted as baicalin in b9
T2 construct: gene UBASH3B
T2 sequence (Q8TF42 380-649 limits assumed): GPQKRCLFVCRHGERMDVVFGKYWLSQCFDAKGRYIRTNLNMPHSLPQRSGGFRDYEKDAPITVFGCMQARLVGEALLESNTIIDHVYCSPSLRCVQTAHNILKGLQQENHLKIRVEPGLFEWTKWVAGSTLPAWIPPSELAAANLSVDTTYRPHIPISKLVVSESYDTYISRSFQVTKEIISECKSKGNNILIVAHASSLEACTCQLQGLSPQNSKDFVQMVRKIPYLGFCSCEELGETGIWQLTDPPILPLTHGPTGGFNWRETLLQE

[3] = target: T2, STS1-HP (STS1 histidine phosphatase domain); assay: capillary electrophoresis, migration time shift; type: binding; settings: 20 mM PBS, pH 7.0, 20 kV, UV 230 nm

inhibition at 10 µg/mL [1]: 13.8%
Compound: O=c1cc(-c2ccccc2)oc2cc(O)c(O)c(O)c12 [baicalein]
% inhibition at 10 μg/mL [2]: (BC) could significantly inhibit the phosphatase activity of STS1 in vitro
capillary electrophoresis, migration time shift [3]: migration times of STS1 and STS2 proteins were markedly delayed when BC was added
